Experimental data from ChEMBL document CHEMBL3045120, “Synthesis, characterization, and evaluation of some novel 4(3H)-quinazolinone derivatives as anti-inflammatory and analgesic agents” (2013).

Tests used:
Type in all cases: functional
Set-up in all cases: scale not given: the % may be the effect or the level left
Rattus norvegicus [1] = experiment: Analgesic activity inRattus norvegicus albino (rat) assessed as reduction of minimum electric shock-induced pain at 100 mg/kg after 1 hr relative to control
Rattus norvegicus [2] = experiment: Anti-inflammatory activity inRattus norvegicus albino (rat) assessed as reduction of cotton pellet-induced dry weight of granuloma at 100 mg/kg, po measured after 7 days relative to control
Rattus norvegicus [3] = experiment: Analgesic activity inRattus norvegicus albino (rat) assessed as reduction of minimum electric shock-induced pain at 100 mg/kg after 2 hr relative to control
Rattus norvegicus [4] = experiment: Anti-inflammatory activity inRattus norvegicus albino (rat) assessed as reduction of carrageenan-induced paw edema at 100 mg/kg, po administered 1 hr prior to carrageenan challenge measured after 3 hr by mercury plethysmographic analysis relative to control
Rattus norvegicus [5] = experiment: Analgesic activity inRattus norvegicus albino (rat) assessed as reduction of minimum electric shock-induced pain at 5 mg/kg after 2 hr relative to control
Rattus norvegicus [6] = experiment: Analgesic activity inRattus norvegicus albino (rat) assessed as reduction of minimum electric shock-induced pain at 5 mg/kg after 1 hr relative to control
Rattus norvegicus [7] = experiment: Anti-inflammatory activity inRattus norvegicus albino (rat) assessed as reduction of carrageenan-induced paw edema at 5 mg/kg, po administered 1 hr prior to carrageenan challenge measured after 3 hr by mercury plethysmographic analysis relative to control
Rattus norvegicus [8] = experiment: Anti-inflammatory activity inRattus norvegicus albino (rat) assessed as reduction of cotton pellet-induced dry weight of granuloma at 5 mg/kg, po measured after 7 days relative to control

SMILES	Activity (Rattus norvegicus [1])	Activity (Rattus norvegicus [2])	Activity (Rattus norvegicus [3])	Activity (Rattus norvegicus [4])	Activity (Rattus norvegicus [5])	Activity (Rattus norvegicus [6])	Activity (Rattus norvegicus [7])	Activity (Rattus norvegicus [8])
O=C1OC(c2ccccc2)=N/C1=C/c1nc2ccc(I)cc2c(=O)n1-c1ccc(Cl)cc1	60.9%	72.6%	63.3%	49.6%	–	–	–	–
CCOc1ccccc1-n1c(N)c(C#N)c(-c2nc3ccc(I)cc3c(=O)n2-c2ccc(F)cc2)c(C#N)c1=O	45.1%	52.2%	53.1%	20.7%	–	–	–	–
O=c1c2cc(I)ccc2nc(C2CC(c3ccccc3)=NN2)n1-c1ccc(Cl)cc1 (centres undefined)	55.4%	71.9%	59.2%	50.4%	–	–	–	–
O=C(/C=C/c1nc2ccc(I)cc2c(=O)n1-c1ccc(F)cc1)c1ccccc1	46.9%	41.8%	54.1%	28.3%	–	–	–	–
CC(=O)c1c(-c2nc3ccc(I)cc3c(=O)n2-c2ccc(Cl)cc2)[nH][nH]c1=O	47.9%	72.2%	61.9%	48.3%	–	–	–	–
Cc1c(/N=C/c2nc3ccc(I)cc3c(=O)n2-c2ccc(F)cc2)c(=O)n(-c2ccccc2)n1C	64.8%	73.5%	65.6%	53.5%	–	–	–	–
Cc1c(/N=C/c2nc3ccc(I)cc3c(=O)n2-c2ccc(Cl)cc2)c(=O)n(-c2ccccc2)n1C	53.7%	60.7%	54.2%	47.4%	–	–	–	–
O=C1NC(=S)S/C1=C/c1nc2ccc(I)cc2c(=O)n1-c1ccc(F)cc1	57.9%	67.3%	61.3%	44.8%	–	–	–	–
O=C(N/N=C/c1nc2ccc(I)cc2c(=O)n1-c1ccc(F)cc1)c1ccncc1	57.1%	66.7%	64.3%	45.3%	–	–	–	–
CCOc1ccccc1/N=C/c1nc2ccc(I)cc2c(=O)n1-c1ccc(F)cc1	39.3%	50.2%	56.1%	38.9%	–	–	–	–
Cc1c(N(C)CS(=O)(=O)[O-])c(=O)n(-c2ccccc2)n1C.[Na+] [DIPYRONE SODIUM]	–	–	–	–	85.7%	82.9%	–	–
COc1ccc2c(c1)c(CC(=O)O)c(C)n2C(=O)c1ccc(Cl)cc1 [INDOMETHACIN]	–	–	–	–	–	–	78.3%	75.2%
